Results on 13 molecules are retold here after patent publication US8901307B2, “Chemical compounds 251” (AstraZeneca AB, priority 2008, dated 2014).

Where a name gives a salt, the structure may show the parent alone. Where only a bound is given, the exact number is not on record here.

The target of one test is T1, human His-PIM1 [2-313] (Homo sapiens, UniProt P11309).
T1 construct: purified human His-PIM1 [2-313] enzyme; His (N); purchased University of Dundee, Scotland; host or cells: baculovirus system
T1 sequence (P11309 2-313): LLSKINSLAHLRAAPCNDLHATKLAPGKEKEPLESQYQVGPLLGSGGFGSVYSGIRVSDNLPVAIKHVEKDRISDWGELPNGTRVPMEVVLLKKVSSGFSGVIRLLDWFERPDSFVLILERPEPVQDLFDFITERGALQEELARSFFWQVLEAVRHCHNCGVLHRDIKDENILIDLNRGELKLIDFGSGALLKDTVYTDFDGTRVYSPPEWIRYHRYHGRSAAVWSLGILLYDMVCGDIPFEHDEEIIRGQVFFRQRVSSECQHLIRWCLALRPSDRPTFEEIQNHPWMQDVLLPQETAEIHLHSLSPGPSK
In words: PIM1 in-vitro mobility shift assay (Caliper LC3000, FL-Ahx-Bad phosphorylation). The test is classed as biochemical. The settings on record: 1.5 h; percent inhibition at 0.3 uM compound; read-out: PIM1 % I at 0.3 uM. The method, boiled down:
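Compound preincubated 20 min at 25 °C with 2.4 nM PIM1, 3.6 µM FL-Ahx-Bad peptide and 240 µM ATP (1.2× mix concentrations). Reaction started with 24 mM MgCl2 mix, run 90 min at 25 °C, EDTA-stopped. Phospho/unphospho peptide separated by microfluidic mobility shift; percent inhibition from ratiometric turnover.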

A further test deals with T2, human His-PIM2 [23-299] (Homo sapiens, UniProt Q9P1W9).
T2 construct: purified human His-PIM2 [23-299] enzyme; His (N); host or cells: E. coli
T2 sequence (Q9P1W9 23-299): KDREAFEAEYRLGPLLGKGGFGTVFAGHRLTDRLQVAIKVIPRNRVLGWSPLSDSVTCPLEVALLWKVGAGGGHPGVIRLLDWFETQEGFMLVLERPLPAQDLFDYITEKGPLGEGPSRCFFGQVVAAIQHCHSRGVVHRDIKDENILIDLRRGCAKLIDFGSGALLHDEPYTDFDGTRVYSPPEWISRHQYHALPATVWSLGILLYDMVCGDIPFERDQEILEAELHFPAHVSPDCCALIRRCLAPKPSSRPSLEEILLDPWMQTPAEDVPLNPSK
Nature of the test: PIM2 in-vitro mobility shift assay (Caliper LC3000, FL-Ahx-Bad phosphorylation). The class given is biochemical. Conditions: 1.5 h; percent inhibition at 0.3 uM compound; read-out: PIM2 % I at 0.3 uM.

As to `O=C1NC(=O)/C(=C/c2cc(C(F)(F)F)ccc2N2CCN(C(=O)C3CCCNC3)CC2)S1` (centres unmarked) [Example 92, (Z)-5-(2-(4-(piperidine-3-carbonyl)piperazin-1-yl)-5-(trifluoromethyl)benzylidene)thiazolidine-2,4-dione hydrochloride], the values for the inhibition at 0.3 µM on human His-PIM1 [2-313] and on human His-PIM2 [23-299] were greater than 95% and 81.5%, respectively.

In the case of `O=C1NC(=O)/C(=C/c2cc(C(F)(F)F)cc(Cl)c2N2CCC(N3CCOCC3)CC2)S1` [Example 22], the values for the inhibition at 0.3 µM at human His-PIM1 [2-313] and on human His-PIM2 [23-299] were 81.9% and 8.5%, respectively.

With `NCCC(=O)N1CCCN(c2ccccc2/C=C2\SC(=O)NC2=O)CC1` [Example 105, (Z)-5-(2-(4-(3-aminopropanoyl)-1,4-diazepan-1-yl)benzylidene)thiazolidine-2,4-dione hydrochloride], the inhibition at 0.3 µM is greater than 95% on human His-PIM1 [2-313] and 92.4% at human His-PIM2 [23-299].

On to `N[C@H]1CCN(c2c(/C=C3\SC(=O)NC3=O)cccc2OCC(F)(F)F)C1` [Example 122Z, (S,Z)-5-(2-(3-aminopyrrolidin-1-yl)-3-(2,2,2-trifluoroethoxy)benzylidene)thiazolidine-2,4-dione hydrochloride], for which the inhibition at 0.3 µM on human His-PIM1 [2-313] and at human His-PIM2 [23-299] was greater than 95% in each case.

Consider `NCC1CCCN(c2c(Cl)cc(C(F)(F)F)cc2/C=C2\SC(=O)NC2=O)C1` (centres unmarked) [Example 4], for which the inhibition at 0.3 µM at human His-PIM1 [2-313] was greater than 95%; on human His-PIM2 [23-299] it was 79.6%.

Turning to `COc1cc(/C=C2\SC(=O)NC2=O)c(N2CCC(CO)CC2)cc1OC` [Example 41, (5Z)-5-{2-[4-(hydroxymethyl)piperidin-1-yl]-4,5-dimethoxybenzylidene}-1-,3-thiazolidine-2,4-dione], the inhibition at 0.3 µM was found to be 74% at human His-PIM1 [2-313] and 25.1% on human His-PIM2 [23-299].

Consider `CN(C)[C@H]1CCN(c2cccc(Cl)c2C=C2SC(=O)NC2=O)C1` [Example 84O, (S)-5-(2-chloro-6-(3-(dimethylamino)pyrrolidin-1-yl)benzylidene)thiazolidine-2,4-dione], for which the inhibition at 0.3 µM at human His-PIM1 [2-313] and at human His-PIM2 [23-299] was less than 5% throughout.

For the molecule `N[C@@H]1CCCN(c2c(/C=C3\SC(=O)NC3=O)cccc2-c2ccccc2)C1` [Example 122AI, (R,Z)-5-((2-(3-aminopiperidin-1-yl)biphenyl-3-yl)methylene)thiaozlidine-2,4-dione], the inhibition at 0.3 µM on human His-PIM1 [2-313] and on human His-PIM2 [23-299] was greater than 95% each time.

As for `N[C@H]1CCCN(c2c(Cl)cc(C(F)(F)F)cc2/C=C2\SC(=O)NC2=O)C1` [Example 1, (S,Z)-5-(2-(3-aminopiperidin-1-yl)-3-chloro-5-(trifluoromethyl)benzylidene)thiazolidine-2,4-dione trifluoroacetate], the inhibition at 0.3 µM was greater than 95% on human His-PIM1 [2-313] and 77.7% at human His-PIM2 [23-299].

Turning to `NC(=O)NCC(=O)N[C@H]1CCN(c2c(Cl)cccc2/C=C2\SC(=O)NC2=O)C1` [Example 138], the inhibition at 0.3 µM at human His-PIM1 [2-313] was 87.9%; on human His-PIM2 [23-299], 63.2%.

In the case of `N[C@@H]1CCCN(c2c(/C=C3\SC(=O)NC3=O)cccc2OCC(F)(F)F)C1` [Example 122Y, (R,Z)-5-(2-(3-aminopiperidin-1-yl)-3-(2,2,2-trifluoroethoxy)benzylidene)thiazolidine-2,4-dione hydrochloride], the inhibition at 0.3 µM at human His-PIM1 [2-313] and on human His-PIM2 [23-299] was greater than 95% in each case.

For `N[C@H]1CCN(c2ccc(C(=O)O)cc2/C=C2\SC(=O)NC2=O)C1` [Example 122AH, (S,Z)-4-(3-aminopyrrolidin-1-yl)-3-((2,4-dioxothiazolidin-5-ylidene)methyl)benzoic acid], the inhibition at 0.3 µM at human His-PIM1 [2-313] was determined as 19%; on human His-PIM2 [23-299], 14%.

For the molecule `NCCC(=O)N1CCN(c2ncccc2/C=C2\SC(=O)NC2=O)CC1` [Example 90, (Z)-5-((2-(4-(3-aminopropanoyl)piperazin-1-yl)pyridin-3-yl)methylene)thiazolidine-2,4-dione trifluoroacetate], the inhibition at 0.3 µM at human His-PIM1 [2-313] was 78.2%; at human His-PIM2 [23-299] it was 86.3%.
